Values of other authors, collected in the CATMoS acute toxicity set (Mansouri et al. 2021).
Where “and” joins values, the source holds several entries; their conditions need not be identical. Equal entries are not always repeated.

assay: rat acute oral toxicity; settings: in vivo

SMILES | LD50
CCN(CC)c1ccc(N=O)c(O)c1 | 315 mg/kg
CC(C)CCCCCCO | 2980 mg/kg
COc1cc(N)c(Cl)cc1C(=O)NC1CCN(CCCOc2ccc(F)cc2)CC1OC (stereo unspecified) | 4170 mg/kg
CN1CC[C@@]2(C)c3cc(OC(=O)NCCCCCCCCCCN4CCCCC4)ccc3N(C)[C@@H]12 | 15.3 mg/kg
OCCN1CCN(CCCN2c3ccccc3C=Cc3ccccc32)CC1 | 1110 mg/kg and 900 mg/kg
O=C1C[C@@H]2OCC=C3CN4CC[C@]56c7ccccc7N1[C@H]5[C@H]2[C@H]3C[C@H]46 | 16.2 mg/kg
COP(=S)(OC)SCCSc1ccc(Cl)cc1 | 100 mg/kg
O=CNc1ccc(Br)cc1 | 1120 mg/kg
CCOC(=O)CI | 50 mg/kg
O=[N+]([O-])c1c(Cl)c(Cl)c(Cl)c2nc(C(F)(F)F)[nH]c12 | 19.3 mg/kg
Cc1ccn(C(N)=O)n1 | 830 mg/kg and 1100 mg/kg
CCOc1cc2c(cc1OCC)C1CC(=O)C(CCC#N)CN1CC2 (stereo unspecified) | 780 mg/kg
OCC(O)CCl (stereo unspecified) | 26 mg/kg
CCC1CCC(CC)O1 (stereo unspecified) | 3400 mg/kg
OCCSSCCO | 173 mg/kg
O=C(O)Cc1cc(O)ccc1Nc1c(Cl)cccc1Cl | 1430 mg/kg
C=CCN(C)N=O | 340 mg/kg
NC(=O)CC[C@H](N)C(=O)O | 7500 mg/kg
OCc1ccc(OCCn2ccnc2)cc1 | 4860 mg/kg
CC[C@H](C)N | 380 mg/kg
FC(F)(F)C(Cl)Br (stereo unspecified) | 5680 mg/kg
N[C@@H](CCC(=O)O)C(=O)O | 14700 mg/kg
Nc1ccc(OCCO)c(N)c1 | 1000 mg/kg
c1cc2ccc3cccc4ccc(c1)c2c34 | 2700 mg/kg
Cc1ccc(C)n1Nc1ccc(N2CCOCC2)nn1 | 2250 mg/kg
O=[N+]([O-])c1cc2[nH]c(C(F)(F)F)nc2c(Cl)c1Cl | 55 mg/kg

SMILES | LD50
C=CCNCC=C | 578 mg/kg
CS(=O)(=O)OC(CCN1CCCCC1)(c1ccccc1)c1ccccc1 | 1240 mg/kg
N#CC(=O)c1cccc(Cl)c1Cl | 50 mg/kg
CCCCCCCCCC(=O)NP(=O)(OC)SC (stereo unspecified) | 125 mg/kg
Cc1cccc(O)c1 | 242 mg/kg
CCCCc1c(C)nc(NCC)nc1O | 4000 mg/kg
CCOC(=O)N(C)SN(C)C(=O)O/N=C(\C)SC | 226 mg/kg
CC/C(=C(/CC)c1ccc(OP(=O)(O)O)cc1)c1ccc(OP(=O)(O)O)cc1 | 3000 mg/kg
O=C1CCc2cc(C(=O)CCN3CCC(Cc4ccccc4)CC3)ccc2N1 | 500 mg/kg
O=C1C=CC(=O)N1C(=O)NCNC(=O)N1C(=O)C=CC1=O | 1420 mg/kg
CN1CCN(C)CC1 | 1120 mg/kg
COC(C)CCOC(C)=O (stereo unspecified) | 4210 mg/kg
COc1cc(OC)cc(OCC(O)CO)c1 (stereo unspecified) | 2100 mg/kg
CCNc1nc(NC(C)(C)C)nc(OC)n1 | 433 mg/kg
FC(F)(F)c1nc2c(Cl)c(Cl)c(Br)cc2[nH]1 | 2.78 mg/kg
CCSCCSP(=S)(OC)OC | 40 mg/kg
Cc1ccc(Oc2cc(SCC(=O)NN)ncn2)cc1 | 460 mg/kg
c1cc2c(cc1C1CO1)O2 (stereo unspecified) | 2830 mg/kg
COc1cccc([C@]2(O)CCCC[C@H]2CN(C)C)c1 (single isomer, unassigned) | 228 mg/kg
Oc1ccc(Sc2ccc(O)cc2)cc1 | 3360 mg/kg
COC(CN1CCN(CCC(O)c2ccccc2)CC1)c1ccccc1 (stereo unspecified) | 640 mg/kg
CC(=O)OC(c1ccccc1)C(Cl)(Cl)Cl (stereo unspecified) | 6800 mg/kg
CCCCCC1=CCCC1=O | 2200 mg/kg
CCC(C)(O)C#CC(C)(O)CC (stereo unspecified) | 1400 mg/kg
CC(=O)OC(C)C[N+](C)(C)C (stereo unspecified) | 750 mg/kg
O=C(O)c1cc(C(=O)O)cc(S(=O)(=O)O)c1 | 2600 mg/kg and 6450 mg/kg

SMILES | LD50
ClCCOCOCCCl | 65 mg/kg
N#CCCN(CCO)c1ccccc1 | 3210 mg/kg
O=C(O)C(F)(F)C(F)(F)C(F)(F)C(F)(F)C(F)(F)C(F)(F)C(F)(F)F | 430 mg/kg
COC(=O)C1=C(C)NC(C)=C(C(=O)O[C@H]2CCN(Cc3ccccc3)C2)[C@H]1c1cccc([N+](=O)[O-])c1 | 105 mg/kg
N/C(CNc1ccc(Cl)cc1)=N/O | 450 mg/kg
O=C1CCC2CCCCC2O1 (stereo unspecified) | 3900 mg/kg
CC(CN(CCN(CC(C)OB(O)O)CC(C)OB(O)O)CC(C)OB(O)O)OB(O)O (stereo unspecified) | 4930 mg/kg
CC(C)NC1Cc2ccccc2Cc2ccccc21 (stereo unspecified) | 500 mg/kg
C=CCOc1ccccc1C(=O)N(CC)CC | 325 mg/kg
CCN1CCCC1CNC(=O)c1cc(S(=O)(=O)CC)ccc1OC (stereo unspecified) | 2100 mg/kg
CC(C=O)c1ccccc1 (stereo unspecified) | 2800 mg/kg
CN1CCCCC1CCN1c2ccccc2Sc2ccc(Cl)cc21 (stereo unspecified) | 1200 mg/kg
O=c1[nH]c(=O)n([C@H]2C[C@H](O)[C@@H](CO)O2)cc1Br | 8400 mg/kg
CCOC(=O)Nc1ccc2c(c1)N(C(=O)CN(C)C)c1ccccc1CC2 | 78 mg/kg
CCC(SC(C)=NOC(=O)NC)C(N)=O (stereo unspecified) | 14.1 mg/kg
BrC(Br)C(Br)Br | 1200 mg/kg
CCN(CC)CCOCCOC(=O)C(CC)(CC)c1ccccc1 | 183 mg/kg
CN(C)[C@@H]1C(O)=C(C(N)=O)C(=O)[C@@]2(O)C(O)=C3C(=O)c4c(O)ccc(Cl)c4[C@@H](O)[C@H]3C[C@@H]12 | 2370 mg/kg
C=CC(=O)NC(C)C | 375 mg/kg
COc1cc(C(Cl)(Cl)Cl)cc(Cl)n1 | 1500 mg/kg
COc1ccccc1C=Nc1ccccc1C(=O)O | 1500 mg/kg
Cc1c(-c2ccccc2)oc2c(C(=O)OC(C)(C)CN3CCCCC3)cccc2c1=O | 1980 mg/kg
CC(=O)Nc1cccc2c3c([nH]c12)CCCC3 | 3860 mg/kg
Cc1ccc(CN(C)N=O)cc1 | 400 mg/kg
